The first assay relates to VJ-300 cells. The experiment in a line: In vitro test of action suppressing proliferation of cancer cells, combined administration of doxorubicin (colony formation), resistant cells. Type of assay: cell-based, Human. The note with it: ADM alone or ADM + test compound 1 µg/ml, LD50 of ADM relative to ADM alone in KB cells = 1, 7 days incubation, colony count. How it is done:
Human rhinopharynx cancer derived KB cells (i.e., sensitive cells) and their multi-drug resistant clone VJ-300 cells (i.e., resistant cells) were used as the test cells. As the incubation solutions, use was made of 10% fetal calf serum (Flow Laboratories) and Eagle MEM medium (Nissui Seiyaku) containing 0.292 mg/ml of L-glutamine (Flow Laboratories). The tests of the action for overcoming resistance to anti-cancer drugs or action for increasing the effect of the anti-cancer drug with the combined administration of the anti-cancer drug doxorubicin (i.e., adriamycin, ADM) and the test compound were performed as follows:
The test cells were suspended in incubation solutions and adjusted to a cell density of about 200 cells/ml. The cell suspensions were injected in 2 ml amounts into petri dishes and were incubated in a CO2 gas incubator (5% CO2, 95% air) at 37°C for 24 hours. Then, 5 µl of a predetermined concentration of the aqueous ADM solution and a predetermined concentration of a DMSO solution of the test compound were added, then the incubation was continued for a further 7 days. After the end of the incubation, the result was immobilized with methanol, Giemsa stained and measured for the number of colonies per dish. The results were used to prepare a volume-reaction curve. […] The results are shown in Table 8 to Table 10 using the concentration of LD50 of ADM in the ADM alone group by KB cells as the resistance degree 1 and calculating the resistances of the following LD50 concentrations as relative ratios. […]
On to `CCOC(=O)C1=C(c2ccc(-n3ccnc3)cc2)NC(C)=C(C(=O)OCCCc2cccnc2)C1/C=C/c1ccccc1` (stereo not shown) [Compound 43, 2-[4-(1-imidazolyl)phenyl]-6-methyl-4-[(E)-2-phenylethenyl]-1,4-dihydropyridin-3,5-dicarboxylate 3-ethylester, 5-[3-(3-pyridyl)propyl]ester], for which the “Degree of resistance for ADM VJ-300” value amounted to 1.4. Take `CCOC(=O)C1=C(c2ccc(-n3nnc4ccccc43)cc2)NC(C)=C(C(=O)OC/C=C/c2cccnc2)C1/C=C/c1ccccc1` (stereo not shown) [Compound 32, 2-[4-(1H-benzotriazol-1-yl)phenyl]-6-methyl-4-[(E)-2-phenylethenyl]-1,4-dihydropyridin-3,5-dicarboxylate 3-ethylester, 5-[(E)-3-(3-pyridyl)-2-propenyl]ester]: the “Degree of resistance for ADM VJ-300” value is on record as 1.4.

With `COC(=O)C1=C(c2ccc(-n3ccnc3)cc2)NC(C)=C(C(=O)OC/C=C/c2cccnc2)C1C#Cc1ccccc1` (stereo not shown) [Compound 40, 2-[4-(1-imidazolyl)phenyl]-6-methyl-4-phenylethynyl-1,4-dihydropyridin-3,5-dicarboxylate 3-methylester, 5-[(E)-3-(3-pyridyl)-2-propenyl]ester], the “Degree of resistance for ADM VJ-300” value amounted to 2.5. On to `COC(=O)C1=C(c2ccc(-n3ccnc3)cc2)NC(C)=C(C(=O)OC/C=C/c2cccnc2)C1/C=C/c1ccccc1` (stereo not shown) [Compound 39, 2-[4-(1-imidazolyl)phenyl]-6-methyl-1,4-dihydropyridin-4-[(E)-2-phenylethenyl]-3,5-dicarboxylate 3-methylester, 5-[(E)-3-(3-pyridyl)-2-propenyl]ester], for which the “Degree of resistance for ADM VJ-300” value stood at 1.2. Consider `CCOC(=O)C1=C(c2ccc(-n3c(C)nc4cnccc43)cc2)NC(C)=C(C(=O)OCCCc2cccnc2)C1CC(C)(C)C` (stereo not shown) [Compound 8, 4-(2,2-dimethylpropyl)-6-methyl-2-[4-(2-methylimidazo[4,5-c]pyridin-1-yl)phenyl]-1,4-dihydropyridin-3,5-dicarboxylate 3-ethylester, 5-[3-(3-pyridyl)propyl]ester], for which the “Degree of resistance for ADM VJ-300” value came out at 1.3. Same read-out and setting: under `CCOC(=O)C1=C(c2ccc(N3CCOCC3)cc2)NC(C)=C(C(=O)OC/C=C/c2cccnc2)C1/C=C/c1ccccc1` (stereo not shown) [Compound 34, 6-methyl-2-(4-morpholinophenyl)-4-[(E)-2-phenylethenyl]-1,4-dihydropyridin-3,5-dicarboxylate 3-ethylester, 5-[(E)-3-(3-pyridyl)-2-propenyl]ester] stands 3.0.

Take `CCOC(=O)C1=C(c2ccc(-n3c(C)nc4ncccc43)cc2)NC(C)=C(C(=O)OC/C=C/c2cccnc2)C1/C=C/c1ccccc1Cl` (stereo not shown) [Compound 22, 4-[(E)-2-(2-chlorophenyl]ethenyl]-6-methyl-2-[4-(2-methylimidazo[4,5-b]pyridin-1-yl)phenyl]-1,4-dihydropyridin-3,5-dicarboxylate 3-ethylester, 5-[(E)-3-(3-pyridyl)-2-propenyl]ester]: the “Degree of resistance for ADM VJ-300” value is 1.7. Consider `CCOC(=O)C1=C(c2ccc(-n3c(C)nc4cnccc43)cc2)NC(C)=C(C(=O)OCCCC(=O)c2cccnc2)C1CCCC1CCCCC1` (stereo not shown) [Compound 45, 4-(3-cyclohexylpropyl)-6-methyl-2-[4-(2-methylimidazo[4,5-c]pyridin-1-yl)phenyl]-1,4-dihydropyridin-3,5-dicarboxylate 3-ethylester, 5-(3-nicotinoylpropyl)ester], for which the “Degree of resistance for ADM VJ-300” value was found to be 2.6. Regarding `CCOC(=O)C1=C(c2ccc(-n3c(C)nc4cnccc43)cc2)NC(C)=C(C(=O)OCCCc2cccnc2)C1C1CCCCC1` (stereo not shown) [Compound 9, 4-cyclohexyl-6-methyl-2-[4-(2-methylimidazo[4,5-c]pyridin-1-yl)phenyl]-1,4-dihydropyridin-3,5-dicarboxylate 3-ethylester, 5-[3-(3-pyridyl)propyl]ester], the “Degree of resistance for ADM VJ-300” value was 2.9. Same read-out and setting: under `CCCCCC1C(C(=O)OCCCCCc2cccnc2)=C(C)NC(c2ccc(-n3c(C)nc4cnccc43)cc2)=C1C(=O)OCC` (stereo not shown) [Compound 17, 6-methyl-2-[4-(2-methylimidazo[4,5-c]pyridin-1-yl)phenyl]-4-pentyl-1,4-dihydropyridin-3,5-dicarboxylate 3-ethylester, 5-[5-(3-pyridyl)pentyl]ester] stands 1.6. For the molecule `CCOC(=O)C1=C(c2ccc(-n3ccc4ccccc43)cc2)NC(C)=C(C(=O)OC/C=C/c2cccnc2)C1/C=C/c1ccccc1` (stereo not shown) [Compound 35, 2-[4-(1-indolyl)phenyl]-6-methyl-4-[(E)-2-phenylethenyl]-1,4-dihydropyridin-3,5-dicarboxylate 3-ethylester, 5-[(E)-3-(3-pyridyl)-2-propenyl]ester], the “Degree of resistance for ADM VJ-300” value stood at 3.0. With `CCOC(=O)C1=C(c2ccc(-n3c(C)nc4cnccc43)cc2)NC(C)=C(C(=O)OCCCCCc2cccnc2)C1/C=C/c1ccccc1` (stereo not shown) [Compound 21, 6-methyl-2-[4-(2-methylimidazo[4,5-c]pyridin-1-yl)phenyl]-4-[(E)-2-phenylethenyl]-1,4-dihydropyridin-3,5-dicarboxylate 3-ethylester, 5-[5-(3-pyridyl)pentyl]ester], the “Degree of resistance for ADM VJ-300” value is recorded as 1.1. Same read-out and setting: under `COC(=O)C1=C(c2ccc(-n3c(C)nc4cnccc43)cc2)NC(C)=C(C(=O)OC/C=C/c2cccnc2)C1/C=C/c1ccsc1` (stereo not shown) [Compound 41] stands 7.8; under `CCOC(=O)C1=C(c2ccc(SC)cc2)NC(C)=C(C(=O)OC/C=C/c2cccnc2)C1/C=C/c1ccccc1` (stereo not shown) [Compound 31, 6-methyl-2-(4-methylthiophenyl)-1,4-dihydropyridin-4-[(E)-2-phenylethenyl]-3,5-dicarboxylate 3-ethylester, 5-[(E)-3-(3-pyridyl)-2-propenyl]ester], 2.6. Same read-out and setting: the result for `CCCCCC1C(C(=O)OCCCN2CCN(C(c3ccccc3)c3ccccc3)CC2)=C(C)NC(c2ccc(-n3c(C)nc4ncccc43)cc2)=C1C(=O)OCC` (stereo not shown) [Compound 5, 6-methyl-2-[4-(2-methylimidazo[4,5-b]pyridin-1-yl)phenyl]-4-pentyl-1,4-dihydropyridin-3,5-dicarboxylate 3-ethylester, 5-[3-(4-benzhydrylpiperadin-1-yl)propyl]ester] reads 4.6; that for `CCOC(=O)C1=C(c2ccc(-n3c(C)nc4cnccc43)cc2)NC(C)=C(C(=O)OC/C=C/c2cccnc2)C1C=C1CCCCC1` (stereo not shown) [Compound 29, 4-cyclohexylidenemethyl-6-methyl-2-[4-(2-methylimidazo[4,5-c]pyridin-1-yl)phenyl]-1,4-dihydropyridin-3,5-dicarboxylate 3-ethylester, 5-[(E)-3-(3-pyridyl)-2-propenyl]ester], 1.2. The same measure, in the same setting: under `CCCCCC1C(C(=O)OCCCc2cccnc2)=C(C)NC(c2ccc(-n3c(C)nc4cnccc43)cc2)=C1C(=O)OCC` (stereo not shown) [Compound 7, 6-methyl-2-[4-(2-methylimidazo[4,5-c]pyridin-1-yl)phenyl]-4-pentyl-1,4-dihydropyridin-3,5-dicarboxylate 3-ethylester, -5-[3-(3-pyridyl)propyl]ester] stands 2.8; under `CCOC(=O)C1=C(c2cccc(-n3ccnc3)c2)NC(C)=C(C(=O)OC/C=C/c2cccnc2)C1/C=C/c1ccccc1` (stereo not shown) [Compound 36, 2-[3-(1-imidazolyl)phenyl]-6-methyl-4-[(E)-2-phenylethenyl]-1,4-dihydropyridin-3,5-dicarboxylate 3-ethylester, 5-[(E)-3-(3-pyridyl)-2-propenyl]ester], 1.0; under `CCOC(=O)C1=C(c2ccc(-n3c(C)nc4cnccc43)cc2)NC(C)=C(C(=O)OC/C=C/c2cccnc2)C1CCC1CCCCC1` (stereo not shown) [Compound 28, 4-(2-cyclohexylethyl)-6-methyl-2-[4-(2-methylimidazo[4,5-c]pyridin-1-yl)phenyl]-1,4-dihydropyridin-3,5-dicarboxylate 3-ethylester, 5-[(E)-3-(3-pyridyl)-2-propenyl]ester], 1.7.

A further assay concerns VCR resistant murine leukemia (P388/VCR) cells. The experiment in a line: In vivo test: overcoming resistance to vincristine in VCR resistant murine leukemia cell bearing mice. The settings on record: P388/VCR bearing CDF1 mice; VCR 100 µg/kg alone or with compound 100 mg/kg, intraperitoneally for 5 days. Set-up: species or system CDF1 male mice. Here is the method:
10^6 VCR resistant murine leukemia (P388/VCR) cells were transplanted intraperitoneally into groups of six CDF1 male mice, then the compound of the present invention (100 mg/kg) and VCR (100 µg/kg) were administered intraperitoneally for 5 days. […] Effect of overcoming resistance to anti-cancer drug (T/V) % = [(Rate of prolongation of life using VCR and present compound (T/C))/(Rate of prolongation of life using VCR alone (T/C))] x 100 [formula]
On to `CCOC(=O)C1=C(c2ccc(-n3ccnc3)cc2)NC(C)=C(C(=O)OCCCc2cccnc2)C1/C=C/c1ccccc1` (stereo not shown) [Compound 43, 2-[4-(1-imidazolyl)phenyl]-6-methyl-4-[(E)-2-phenylethenyl]-1,4-dihydropyridin-3,5-dicarboxylate 3-ethylester, 5-[3-(3-pyridyl)propyl]ester], for which the “Average days of survival” value amounted to 13.4.

Staying with this assay, now noted: P388/VCR bearing CDF1 mice; VCR 100 µg/kg alone or with compound 100 mg/kg, intraperitoneally for 5 days; T/C of combination over T/C of VCR alone x 100.
As for `CCOC(=O)C1=C(c2ccc(-n3ccnc3)cc2)NC(C)=C(C(=O)OCCCc2cccnc2)C1/C=C/c1ccccc1` (stereo not shown) [Compound 43, 2-[4-(1-imidazolyl)phenyl]-6-methyl-4-[(E)-2-phenylethenyl]-1,4-dihydropyridin-3,5-dicarboxylate 3-ethylester, 5-[3-(3-pyridyl)propyl]ester], the “Effect of overcoming resistance T/V (%)” value stood at 137%.

The same assay, now with this note: P388/VCR bearing CDF1 mice; VCR 100 µg/kg alone or with compound 100 mg/kg, intraperitoneally for 5 days; with respect to controls.
Turning to `CCOC(=O)C1=C(c2ccc(-n3ccnc3)cc2)NC(C)=C(C(=O)OCCCc2cccnc2)C1/C=C/c1ccccc1` (stereo not shown) [Compound 43, 2-[4-(1-imidazolyl)phenyl]-6-methyl-4-[(E)-2-phenylethenyl]-1,4-dihydropyridin-3,5-dicarboxylate 3-ethylester, 5-[3-(3-pyridyl)propyl]ester], the “Rate of prolongation of life T/C (%)” value came out at 141%.

Values taken from EP0943615A1, “1,4-DIHYDROPYRIDINE DERIVATIVES” (Nikken Chemicals Company, Limited, priority 1996, dated 1998).
